Source: US20220213060A1, “Crystal Form of Quinazolinone Compound and Preparation Method Therefor” (Luoxin Healthcare Science and Technology Development …, priority 2019, published 2022)
Blank lines part the entries; values can stand above or below the compound they belong to.

Tests used:
[1] = Beagle dog absorption test (pharmacokinetics); format: in vivo, Beagle dogs; conditions: male and female Beagle dogs, oral, 0.3 mg/kg, single
Procedure: Beagle dogs were given the crystal form A of the compound represented by formula (I) by single or multiple oral administration and single intravenous injection respectively, with 6 dogs in each group, half male and half female. The single oral doses were 0.3, land 3 mg/kg respectively; the multiple doses were 1 mg/kg, once a day for 7 consecutive days; the single intravenous dose was 0.3 mg/kg. According to the drug plasma concentration-time curve, the pharmacokinetic parameters were calculated, the results are shown in Table 15. The vehicle for drug preparation in group 1 was 5% HP-beta-CD, 5% solutol, pH=8 aqueous solution, the vehicles for groups 2, 3, 4 were 0.5% MC, 0.2% Tween80 aqueous solution.

[2] = Hygroscopicity by dynamic vapor sorption (DVS); format: physicochemical; conditions: 25° C. and 80% RH
Procedure: 1.4 Dynamic Vapor Sorption (DVS) Method of the Present Disclosure
Instrument model: SMS DVS Advantage dynamic vapor sorption instrument
Detection conditions: 10-20 mg of sample was placed in a DVS sample tray for testing.
Detailed DVS parameters were as follows:
Equilibrium: dm/dt=0.01%/min: (shortest: 10 min, longest: 180 min)
Drying: drying at 0% RH for 120 min
RH (%) test gradient: 10%
RH (%) test gradient range: 0%-90%-0%
Hygroscopicity evaluation is classified as follows:
20 mg of the crystal form A of the compound represented by formula (I) was placed in the DVS sample tray for testing.

[3] = test system: HR+/HER2+ human breast cancer BT-474 (PIK3CA amplified); experiment: In vivo pharmacodynamic study, BT-474 nude mouse subcutaneous xenograft tumor model; parameters: species or system BALB/c nude mice
Procedure: The phenotype of human BT-474 breast cancer cells is HR+/HER2+, and it has PIK3CA amplification. This experiment evaluated the efficacy of the crystal form A of the compound represented by formula (I) in a human breast cancer xenograft tumor model, using BYL-719 as a reference.
Cell culture: Human breast cancer BT474 cells were cultured in vitro in a single layer, the culture condition was Hybri-Care medium with 10% fetal bovine serum and the cells were incubated in 5% CO2 at 37° C. Digestion and passage treatment with trypsin-EDTA was carried out twice a week. When the cell saturation was 80%-90% and the number reached the requirement, the cells were collected, counted and inoculated.
Animals: BALB/c nude mice, female, 6-8 weeks old, weighing 18-20 g. A total of 85 animals were required, and provided by Shanghai Bikai experimental animal Co., Ltd.
Tumor inoculation: Estrogen tablets (0.36 mg/tablet) were subcutaneously inoculated on the left back of each mouse, three days later, 0.2 mL (10×10^6 cells) of BT474 cells (with matrigel in a volume ratio of 1:1) were subcutaneously inoculated on the right back of each mouse, group administration was started when the average tumor volume reached 150 mm^3−200 mm^3.
Tumor-bearing mice in each administration group had good tolerance to the tested compounds.

PI3Kα = biological target: T1, PI3Kα (Homo sapiens, UniProt P42336); experiment: In vitro enzymatic activity test (ADP-Glo lipid kinase), PI3Kα wild type; format: biochemical; conditions: Table 17, in vitro screening; read-out: PI3Kα IC50
T1 construct: purchased Millipore 14-602-K
T1 sequence (P42336 whole entry): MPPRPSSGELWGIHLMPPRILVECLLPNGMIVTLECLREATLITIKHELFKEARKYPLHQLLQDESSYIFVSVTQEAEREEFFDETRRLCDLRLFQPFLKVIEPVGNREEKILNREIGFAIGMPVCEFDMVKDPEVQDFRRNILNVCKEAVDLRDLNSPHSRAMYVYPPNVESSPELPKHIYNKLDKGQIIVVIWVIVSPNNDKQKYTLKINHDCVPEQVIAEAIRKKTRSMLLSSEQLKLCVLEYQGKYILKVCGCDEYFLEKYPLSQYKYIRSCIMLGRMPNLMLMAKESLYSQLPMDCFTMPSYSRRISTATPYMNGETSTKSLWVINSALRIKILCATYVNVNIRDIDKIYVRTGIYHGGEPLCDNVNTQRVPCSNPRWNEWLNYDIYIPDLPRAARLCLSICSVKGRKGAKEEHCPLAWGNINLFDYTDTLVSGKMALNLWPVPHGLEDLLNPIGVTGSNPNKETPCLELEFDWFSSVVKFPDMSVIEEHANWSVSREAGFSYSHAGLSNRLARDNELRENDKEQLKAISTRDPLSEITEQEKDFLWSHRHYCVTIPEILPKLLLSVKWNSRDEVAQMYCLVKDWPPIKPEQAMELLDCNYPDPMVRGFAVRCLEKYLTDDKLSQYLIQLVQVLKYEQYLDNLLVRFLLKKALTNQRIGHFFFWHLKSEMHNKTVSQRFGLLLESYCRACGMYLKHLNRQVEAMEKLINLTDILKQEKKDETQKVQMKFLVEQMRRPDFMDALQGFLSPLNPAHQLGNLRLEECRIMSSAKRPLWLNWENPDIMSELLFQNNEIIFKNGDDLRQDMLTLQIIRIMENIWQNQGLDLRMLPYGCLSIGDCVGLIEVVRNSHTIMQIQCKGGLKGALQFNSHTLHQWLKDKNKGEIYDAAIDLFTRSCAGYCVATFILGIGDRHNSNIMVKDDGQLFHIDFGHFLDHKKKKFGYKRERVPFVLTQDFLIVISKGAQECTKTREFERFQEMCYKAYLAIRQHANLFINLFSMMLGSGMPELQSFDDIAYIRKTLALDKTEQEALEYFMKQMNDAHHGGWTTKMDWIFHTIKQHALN
T1 sequence (P27986 whole entry partner): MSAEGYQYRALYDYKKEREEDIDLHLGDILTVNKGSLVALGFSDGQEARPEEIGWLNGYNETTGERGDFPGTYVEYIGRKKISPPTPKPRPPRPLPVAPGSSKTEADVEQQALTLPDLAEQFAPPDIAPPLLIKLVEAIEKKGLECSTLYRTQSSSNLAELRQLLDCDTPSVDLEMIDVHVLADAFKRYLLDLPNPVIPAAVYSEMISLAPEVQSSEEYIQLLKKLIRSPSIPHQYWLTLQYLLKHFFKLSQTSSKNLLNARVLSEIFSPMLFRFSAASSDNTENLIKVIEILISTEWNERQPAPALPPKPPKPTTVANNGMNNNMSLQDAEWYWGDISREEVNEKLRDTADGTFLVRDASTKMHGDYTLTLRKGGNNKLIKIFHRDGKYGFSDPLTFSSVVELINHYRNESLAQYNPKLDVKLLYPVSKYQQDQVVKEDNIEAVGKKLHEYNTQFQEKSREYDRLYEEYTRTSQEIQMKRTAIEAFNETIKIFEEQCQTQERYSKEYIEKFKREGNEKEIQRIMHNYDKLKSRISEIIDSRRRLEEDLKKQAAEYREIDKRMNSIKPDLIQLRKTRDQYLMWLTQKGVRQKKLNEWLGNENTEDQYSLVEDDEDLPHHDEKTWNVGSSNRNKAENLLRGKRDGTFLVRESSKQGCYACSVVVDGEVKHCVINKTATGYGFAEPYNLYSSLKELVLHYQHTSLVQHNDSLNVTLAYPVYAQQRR
Procedure: (§1) The lipid kinase reaction was carried out in a suitable substrate and under ATP conditions, then the activity of the kinase was detected by ADP-Glo™ kit in two steps. Step 1: the kinase reaction was terminated, in which the residual ATP was completely removed and only ADP was retained; step 2: kinase detection reagent was added to convert ADP to ATP, accompanied by fluorescein/luciferase reaction. Finally, the fluorescence value output was converted into kinase activity.
(§2) Experimental Materials and Equipment:
(§3) 2) Kit: ADP-Glo™ lipid kinase and PIP2:3PS kit (Promega #V1792)
(§4) The reagent kit contains: 1 mM PIP2:3PS, 10× lipid dilution buffer, 1 M magnesium chloride, 10 mM ATP, 10 mM ADP, ADP-Glo reagent, detection buffer and detection substrate.
(§5) 3) Reaction plate: OptiPlate-384, white and transparent (PerkinElmer #6007299)
(§6) 1) 10× reaction buffer: 500 mM HEPES, pH 7.5, 500 mM NaCl, […]; BSA: 10% stock solution, self-made
(§7) 2) Final test system conditions: 1× reaction system: 50 mM of HEPES, 50 mM of NaCl, 3 mM of MgCl2, 0.01% BSA (freshly prepared on the day of experiment), 1% DMSO (v/v)+/−compound
(§8) 3) Reaction system: 3 μL of mixture of enzyme and substrate (1:1)+2 μL of ATP/MgCl2 mixture+5 μL of ADP-Glo reagent+10 μL of detection reagent.
(§9) The specific experimental operations were as follows: […]
(§10) (16) Fluorescence values were measured on the Envision instrument.

PI3Kβ = biological target: T2, PI3Kβ (Homo sapiens, UniProt P42338); experiment: In vitro enzymatic activity test (ADP-Glo lipid kinase), PI3Kβ; format: biochemical; conditions: Table 17, in vitro screening
T2 construct: purchased Promega V1751
T2 sequence (P42338 whole entry): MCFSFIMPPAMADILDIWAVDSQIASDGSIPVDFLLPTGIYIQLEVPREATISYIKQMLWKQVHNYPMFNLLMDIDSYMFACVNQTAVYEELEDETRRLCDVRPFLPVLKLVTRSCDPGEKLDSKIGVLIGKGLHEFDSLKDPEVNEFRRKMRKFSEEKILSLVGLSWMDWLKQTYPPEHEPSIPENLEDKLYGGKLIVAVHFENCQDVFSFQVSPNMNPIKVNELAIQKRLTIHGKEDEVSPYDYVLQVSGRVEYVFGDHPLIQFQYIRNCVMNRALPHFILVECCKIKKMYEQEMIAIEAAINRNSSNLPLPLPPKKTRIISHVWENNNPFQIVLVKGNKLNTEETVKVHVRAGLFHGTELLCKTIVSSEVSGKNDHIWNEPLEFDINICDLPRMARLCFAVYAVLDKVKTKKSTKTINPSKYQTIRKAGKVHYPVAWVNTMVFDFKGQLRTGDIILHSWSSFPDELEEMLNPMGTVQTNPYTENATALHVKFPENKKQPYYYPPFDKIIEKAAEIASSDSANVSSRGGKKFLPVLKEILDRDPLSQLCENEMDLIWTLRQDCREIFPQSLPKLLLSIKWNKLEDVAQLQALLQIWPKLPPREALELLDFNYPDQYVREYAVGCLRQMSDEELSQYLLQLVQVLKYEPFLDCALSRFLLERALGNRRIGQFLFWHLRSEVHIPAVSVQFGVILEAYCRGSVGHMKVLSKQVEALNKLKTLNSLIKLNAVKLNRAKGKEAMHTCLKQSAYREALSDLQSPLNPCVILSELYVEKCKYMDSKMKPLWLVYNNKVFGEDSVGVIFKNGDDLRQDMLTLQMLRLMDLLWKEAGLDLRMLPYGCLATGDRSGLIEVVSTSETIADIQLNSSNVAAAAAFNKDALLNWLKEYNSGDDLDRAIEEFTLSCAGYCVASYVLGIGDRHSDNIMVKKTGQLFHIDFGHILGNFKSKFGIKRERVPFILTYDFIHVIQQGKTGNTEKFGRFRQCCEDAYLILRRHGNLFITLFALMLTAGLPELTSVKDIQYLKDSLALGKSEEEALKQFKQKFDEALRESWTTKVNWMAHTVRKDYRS
T2 sequence (P27986 whole entry partner): as the sequence (P27986 whole entry partner) above
Procedure: as §1, §2, §3, §4, §5, §6, §7, §8, §9, §10

PI3Kδ = biological target: T3, PI3Kδ (Homo sapiens, UniProt O00329); experiment: In vitro enzymatic activity test (ADP-Glo lipid kinase), PI3Kδ; format: biochemical; conditions: Table 17, in vitro screening
T3 construct: purchased Millipore 14-604-K
T3 sequence (O00329 whole entry): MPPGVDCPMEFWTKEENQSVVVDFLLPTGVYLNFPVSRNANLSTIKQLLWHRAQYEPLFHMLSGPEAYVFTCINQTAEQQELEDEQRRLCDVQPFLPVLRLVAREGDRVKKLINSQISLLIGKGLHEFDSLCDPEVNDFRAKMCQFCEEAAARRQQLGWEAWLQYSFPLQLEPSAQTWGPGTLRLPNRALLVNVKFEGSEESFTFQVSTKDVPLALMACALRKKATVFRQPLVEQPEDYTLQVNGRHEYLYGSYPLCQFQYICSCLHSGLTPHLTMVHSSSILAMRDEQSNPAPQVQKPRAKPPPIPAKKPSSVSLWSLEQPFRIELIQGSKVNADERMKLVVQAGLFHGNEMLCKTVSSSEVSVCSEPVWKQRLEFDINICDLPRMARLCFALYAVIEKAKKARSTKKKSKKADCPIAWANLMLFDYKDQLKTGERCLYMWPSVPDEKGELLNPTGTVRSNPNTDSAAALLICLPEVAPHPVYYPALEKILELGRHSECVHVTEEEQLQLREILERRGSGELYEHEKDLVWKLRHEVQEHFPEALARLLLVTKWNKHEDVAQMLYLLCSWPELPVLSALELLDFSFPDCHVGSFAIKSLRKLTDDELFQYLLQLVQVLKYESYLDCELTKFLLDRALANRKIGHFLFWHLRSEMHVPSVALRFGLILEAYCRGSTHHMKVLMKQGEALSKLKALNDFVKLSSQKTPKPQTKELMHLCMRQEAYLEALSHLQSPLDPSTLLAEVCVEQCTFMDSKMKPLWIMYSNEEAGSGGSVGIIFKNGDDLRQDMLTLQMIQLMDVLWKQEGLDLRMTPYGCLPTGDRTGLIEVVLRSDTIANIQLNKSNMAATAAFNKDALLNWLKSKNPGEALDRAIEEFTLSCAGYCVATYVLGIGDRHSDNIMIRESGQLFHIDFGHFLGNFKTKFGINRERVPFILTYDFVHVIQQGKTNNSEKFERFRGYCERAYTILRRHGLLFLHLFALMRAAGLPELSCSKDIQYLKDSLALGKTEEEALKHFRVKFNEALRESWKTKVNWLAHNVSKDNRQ
T3 sequence (P27986 whole entry partner): as the sequence (P27986 whole entry partner) above
Procedure: as §1, §2, §3, §4, §5, §6, §7, §8, §9, §10

PI3Kγ = biological target: T4, PI3Kγ (Homo sapiens, UniProt P48736); experiment: In vitro enzymatic activity test (ADP-Glo lipid kinase), PI3Kγ; format: biochemical; conditions: Table 17, in vitro screening
T4 construct: purchased Millipore 14-558-K
T4 sequence (P48736 whole entry): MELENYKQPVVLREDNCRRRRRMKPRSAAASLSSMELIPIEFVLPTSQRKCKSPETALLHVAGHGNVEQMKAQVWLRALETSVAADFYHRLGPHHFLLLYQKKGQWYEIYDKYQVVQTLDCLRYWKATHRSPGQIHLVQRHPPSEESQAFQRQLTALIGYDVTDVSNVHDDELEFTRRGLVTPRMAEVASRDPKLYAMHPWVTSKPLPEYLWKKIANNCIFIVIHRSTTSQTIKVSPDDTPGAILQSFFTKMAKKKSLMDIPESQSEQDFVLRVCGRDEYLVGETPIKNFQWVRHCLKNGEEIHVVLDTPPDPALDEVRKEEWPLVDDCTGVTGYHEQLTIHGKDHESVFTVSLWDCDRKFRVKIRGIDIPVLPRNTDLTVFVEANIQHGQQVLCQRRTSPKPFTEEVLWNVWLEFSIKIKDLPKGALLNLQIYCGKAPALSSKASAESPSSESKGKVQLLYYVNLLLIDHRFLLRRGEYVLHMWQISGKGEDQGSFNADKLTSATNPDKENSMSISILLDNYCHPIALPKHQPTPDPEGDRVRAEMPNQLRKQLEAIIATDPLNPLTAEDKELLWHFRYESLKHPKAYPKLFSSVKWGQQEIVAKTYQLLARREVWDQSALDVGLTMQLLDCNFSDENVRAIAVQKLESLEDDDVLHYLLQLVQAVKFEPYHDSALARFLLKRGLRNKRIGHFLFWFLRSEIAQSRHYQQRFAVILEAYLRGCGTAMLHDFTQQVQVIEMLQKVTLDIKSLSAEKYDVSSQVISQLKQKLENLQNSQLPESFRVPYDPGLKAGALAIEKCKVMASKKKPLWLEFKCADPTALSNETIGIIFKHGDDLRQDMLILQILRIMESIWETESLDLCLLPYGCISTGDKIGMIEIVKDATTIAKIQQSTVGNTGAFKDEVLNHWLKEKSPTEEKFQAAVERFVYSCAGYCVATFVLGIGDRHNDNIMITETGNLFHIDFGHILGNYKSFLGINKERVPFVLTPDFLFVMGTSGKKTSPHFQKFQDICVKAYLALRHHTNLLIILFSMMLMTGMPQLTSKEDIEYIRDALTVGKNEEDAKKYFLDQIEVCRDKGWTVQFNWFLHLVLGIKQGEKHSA
Procedure: as §1, §2, §3, §4, §5, §6, §7, §8, §9, §10

MCF7 cell line = experiment: In vitro cell activity test: ELISA of Akt phosphorylation in MCF7 cells; format: cell-based; conditions: Homo sapiens; inhibition of Akt phosphorylation, insulin-stimulated MCF7 cells
Text: ELISA method was used to measure the inhibition level of the compounds to be tested on the phosphorylation of Akt, which is the downstream protein of PI3K in signal pathway in MCF7 cell line to reflect the cell activity of the compounds.
Cell culture medium: complete cell culture medium (RPMI 1640+10% serum+1% L-glutamine+1% double antibody)
Serum-free medium (without serum, RPMI 1640+1% L-glutamine+1% double antibody)
Specific operation steps were as follows:
(1) MCF7 cells (ATCC® HTB-22™) were inoculated into a 96-well plate with 100 μL (2.5 10^4 cells per well) of complete cell culture medium, and incubated at 37° C. and 5% CO2 for 24 hours.
(2) The complete cell culture medium was replaced with 100 μL serum-free medium, and incubated overnight in starvation
(3) The compound (the initial concentration of the compound was 1 mM, which was subjected to a three-fold dilution in 10 concentrations. Then, each concentration of the compound was diluted 100-fold with serum-free medium), and 25 μL of the diluted compound was added to the well plate containing cells.
(4) The cells were incubated at 37° C. and 5% CO2 for 2 h
(5) 10 μg/mL insulin (Sigma #I9278-5 mL) was used to stimulate the cells in the well plate, incubated for 30 min, and then centrifuged at 1000 rpm for 5 min at room temperature.
(6) 250 μL 1× balanced salt solution (Invitrogen, #14065-056, 4° C., containing 1 mM/L Na3VO4) was added to each well to wash the cells once
(7) 100 μL of lysis buffer (tris(hydroxymethyl)aminomethane hydrochloride, Invitrogen, #15567-1000 ml) was added to each well and shaken at 4° C. for 60 min, and then centrifuged at 4000 rpm for 10 min at 4° C.
(8) The subsequent steps were performed according to the ELISA kit (TGR BioSciences #EKT002) instructions.

[4] = 40 mg/kg, oral once a day for 20 days

SMILES: CNC(=O)[C@H](C)Cn1cnc2ccc(-c3cnc(OC)c(NS(=O)(=O)c4ccc(F)cc4F)c3)cc2c1=O [listing 1 of 2 here]
Oral bioavailability (%) [1]: 71.2%

SMILES: CNC(=O)[C@H](C)Cn1cnc2ccc(-c3cnc(OC)c(NS(=O)(=O)c4ccc(F)cc4F)c3)cc2c1=O [listing 2 of 2 here]
Classification for hygroscopicity [2]: hygroscopic
ΔW, hygroscopical weight gain [2]: 2.332%

SMILES: Cc1nc(NC(=O)N2CCC[C@H]2C(N)=O)sc1-c1ccnc(C(C)(C)C(F)(F)F)c1 [BYL-719, reference compound]
Anti-tumor effect (in words) ([3]; 40 mg/kg group): significant anti-tumor effects
T/C % [3, 4]: 29.39%
TGI % [3, 4]: 95.31%

The remaining lines, values ahead:

IC50 (PI3Kα): 1.75 nM
IC50 (PI3Kβ): 192 nM
IC50 (PI3Kδ): 25.3 nM
IC50 (PI3Kγ): 19.8 nM
IC50 (MCF7 cell line): 35.3 nM
SMILES: CNC(=O)[C@H](C)Cn1cnc2ccc(-c3cnc(OC)c(NS(=O)(=O)c4ccc(F)cc4F)c3)cc2c1=O [Compound represented by formula (I)]

IC50 (MCF7 cell line): 230 nM
SMILES: COc1ncc(-c2ccc3ncn(CCN(C)C)c(=O)c3c2)cc1NS(=O)(=O)c1ccc(F)cc1 [R011 (A2)]

IC50 (MCF7 cell line): > 1000 nM
SMILES: CCN(CC)CCn1cnc2ccc(-c3cnc(OC)c(NS(=O)(=O)c4ccc(F)cc4F)c3)cc2c1=O [R012 (A10)]
